Data: patent US7314968B2, “Transgenic fish and β-catenin signaling pathway model” (University of Washington, priority 2002, dated 2008)

Assays:
hdl = hdl morpholino injection into one-cell TOPdGFP transgenic zebrafish embryos, in situ hybridization and phenotype; assay type: in vivo
Procedure: (§1) In Situ Hybridizations: In situ hybridization was performed as described previously (Oxtoby and Jowett, 1993). The GFP probe was made by antisense transcription of TOPdGFP, using a T7 promoter present in the construct. The Probe for hdl was made from a full-length clone isolated in our laboratory, subcloned into pCS2+. Probes for pax2.1 (Krauss et al., 1991), tbx6 (Hug et al., 1997), and lef1 (Dorsky et al., 1999) were made as described previously. Images were taken with a Kodak DC290 digital camera and processed with Adobe Photoshop 5.0.
(§2) Morpholino Injections: Morpholino antisense oligonucleotides targeted to lef1 and hdl were obtained from Gene Tools (Corvallis, Oreg.). lef1 MO sequence: 5′- […]-3′ (SE ID NO:3); hdl MO sequence: 5′- […]-3(SEQ ID NO:4).
(§3) Approximately 1 ng of the morpholinos was injected into one-cell homozygous transgenic embryos that were fixed for in situ hybrid-ization at appropriate stages. Injections of control morpholinos produced no effect on TOPdGFP expression.

lef1 = lef1 morpholino injection into one-cell TOPdGFP transgenic zebrafish embryos, in situ hybridization and phenotype; assay type: in vivo
Procedure: as §1, §2, §3

Row | Substance | expression of midbrain marker pax2 (hdl; bud stage) | expression of ventrolateral mesoderm markers spt and tbx6 (hdl; bud stage) | posterior GFP expression (hdl; bud stage) | embryo phenotype (hdl; injection at the one-cell stage, 36 hpf) | anterior TOPdGFP expression (hdl; shield stage or bud stage) | embryo phenotype (lef1; 36 hpf) | TOPdGFP expression in the embryo (lef1; bud stage) | expression of spt and tbx6 (lef1; bud stage) | pax2 expression (lef1; bud stage)
1 | hdl morpholino: Morpholino antisense oligonucleotide targeted to zebrafish hdl, 5′- CTCCGTTTAACTGAGGCATGTTGGC-3 (SEQ ID NO:4), from Gene Tools (all phosphorodiamidate morpholino (PMO)) | anterior expansion | no effect | no effect | phenotype indistinguishable from hdl mutant embryos | does not expand | – | – | – | –
2 | lef1 morpholino: Morpholino antisense oligonucleotide targeted to zebrafish lef1, 5′- CTCCTCCACCTGACAACTGCGGCAT-3′ (SEQ ID NO:3), from Gene Tools (all phosphorodiamidate morpholino (PMO)) | – | – | – | – | – | tail truncations and loss of paraxial mesoderm, but normal head development | striking decrease | decreased expression | no effect
